Reference: patent EP0586525B1, “CARBOXAMIDO-(1,2N)-CARBOCYCLIC-2-AMINOTETRALIN DERIVATIVES” (priority 1991, dated 1992)

Assays:
[1] = rat, in vivo; cited from earlier work
[2] = system: spontaneous sympathetic activity; test: Sympathetic nerve discharge (SND) in chloralose anesthetized cats; assay type: in vivo; settings: Felis catus, iv, dose range 0.001-1.0 mg/kg, read-out: Sympathetic nerve discharge, ED50 dose which inhibits spontaneous sympathetic activity
Protocol: Sympathetic Nerve Discharge (SND): The i.v. mg/kg dose causing a 50% depression in SND in chloralose anesthetized cats and the maximum inhibition of sympathetic activity observed in the dose range tested (0.001-1.0 mg/kg i.v.).

[3] = Blood pressure at the SND ED50 dose (BP SND/MAX); assay type: in vivo; settings: at the dose which inhibited sympathetic activity by 50%, i.v., chloralose anesthetized cats
Protocol: BP SND/MAX: The blood pressure of the chloralose anesthetized cats in percent control at the dose causing 50% depression in SND and the maximum reduction in blood pressure as percent of the control blood pressure in the same animals observed in the dose range tested (0.001-1.0 mg/kg i.v.).

[4] = system: dorsal raphe 5-HT cell firing; test: 5-HT cell firing in chloral hydrate anesthetized rats; assay type: in vivo; settings: Rattus norvegicus, iv, read-out: Depression of 5-HT cell firing, ED50
Source text: 5-HT Cell Firing: The i.v. mg/kg dose causing a 50% depression in the firing of dorsal raphe 5-HT cell firing in chloral hydrate anesthetized rats.

[5] = target: T1, 5-hydroxytryptamine (5-HT1A) receptor (Bos taurus, UniProt F6Q2H9); test: Inhibition of 8-OH-DPAT binding in a bovine brain homogenate; settings: read-out: Binding at the 5-HT1A receptor site, IC50
T1 construct: from tissue; host or cells: bovine brain homogenate
T1 sequence (F6Q2H9 1-422): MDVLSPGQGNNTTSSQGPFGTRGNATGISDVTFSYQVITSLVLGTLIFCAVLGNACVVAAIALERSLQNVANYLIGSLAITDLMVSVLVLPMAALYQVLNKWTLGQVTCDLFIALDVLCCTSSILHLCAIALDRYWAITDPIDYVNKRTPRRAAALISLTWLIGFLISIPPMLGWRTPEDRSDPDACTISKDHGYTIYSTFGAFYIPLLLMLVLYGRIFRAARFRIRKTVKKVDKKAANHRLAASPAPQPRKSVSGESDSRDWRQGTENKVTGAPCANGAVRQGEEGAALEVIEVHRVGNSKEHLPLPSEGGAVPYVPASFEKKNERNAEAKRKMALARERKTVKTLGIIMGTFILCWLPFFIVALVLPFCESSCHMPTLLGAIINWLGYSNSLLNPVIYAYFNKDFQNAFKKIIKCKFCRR
Source text: Binding: Inhibition of 8-OH-DPAT binding in a bovine brain homogenate. Potency is given as nM dose required to inhibit 50% of DPAT binding (IC50). This test measures ability to bind to 5-hydroxytryptamine (5-HT1A) receptor.

[6] = Mouse hypothermia; assay type: in vivo; settings: dose depressing temperature by 2°C or more in two of four mice
Protocol: Hypothermia: Starting with a dose of 30 mg/kg, four mice are injected subcutaneously with test compound. Twenty minutes later, the number of animals whose body temperature has decreased by 2°C. or more are counted. If all four animals reach criteria, the drug is considered "active", and subsequent readings are taken at 60 and 120 minutes after drug. The time for last statistically significant drug affect on mean body temperature is indicated in minutes. […] Active compounds are retested using oral administration. Potency is given as mg/kg ED50 (dose required to depress temperature in two of four mice) as measured by Spearman-Karber statistics.

[7] = system: rat hepatocytes; test: In vitro rat hepatocyte intrinsic clearance; assay type: in vitro ADME; settings: for relative metabolic stability (rel. stab.): relative to cis-(±)2,3,3a,4,5,9b-hexahydro-9-carboxamido-3-(n-propyl)-1H-benz[e]indole, rat hepatocytes; for In vitro hepatocyte assay clearance: 2, 5 and 15 µg/ml, 60 minute incubation at 37°C, rat hepatocytes 5.0 million cells/ml
Protocol: Aliquots of each incubate were withdrawn at preset times during the incubation and analyzed for parent compound using HPLC methodology. Intrinsic clearance is expressed as ml/min/5 million cells and metabolic stability relative to cis-(+)2,3,3a,4,5,9b-hexahydro-9-carboxamide-3-(n-propyl)-1H-benz[e]indole is determined.

[8] = Pharmacokinetics following constant infusion (steady state clearance); settings: plasma, iv; after 12 hour infusion (300 µg/hour), anesthetized rat; read-out: In vivo steady state clearance
Protocol: Pharmacokinetics Following Constant Infusion: Clearance rate (ml/min/kg) was determined following a 12 hour infusion (300 µg/hour) of compound in the anesthetized rat. Disappearance of parent compound from plasma was measured at multiple time points following cessation of the infusion using HPLC methodology.

[9] = Oral plasma bioavailability; assay type: in vivo; settings: rat, 6 mg/kg, conscious rats
Protocol: Oral Bioavailability: Comparison of the disappearance of compound from plasma following oral (6 mg/kg) and intravenous (2 mg/kg) administration in conscious rats. Parent compound in plasma was measured at multiple time points following administration using HPLC methodology. Bioavailability is expressed as a percentage of the drug in plasma following oral administration compared to that following intravenous administration.

[10] = sc, subcutaneous (s.c.) administration

| IC50 [5] [nM] | relative metabolic stability (rel. stab.) [7] | clearance [8] [mL/min/kg] | In vitro hepatocyte assay clearance [7] | bioavailability ([9]; Study 1, oral 6 mg/kg vs i.v. 2 mg/kg) [%] | bioavailability ([9]; Study 2, samples taken for 24 hours after administration, oral 6 mg/kg vs i.v. 2 mg/kg) [%] | bioavailability ([9]; study not given, oral 6 mg/kg vs i.v. 2 mg/kg) [%] | SMILES | plasma oral bioavailability [1] [%] | ED50 [2] [mg/kg] | Percent of control arterial blood pressure [3] [%] | ED50 [4] [µg/kg] | ED50 ([6]; oral (p.o.) administration) [mg/kg] | ED50 [6, 10] [mg/kg] |
| --- | --- | --- | --- | --- | --- | --- | --- | --- | --- | --- | --- | --- | --- |
| 10.2 | – | – | – | – | – | – | CCCN1CC[C@H]2c3c(cccc3C(N)=O)CC[C@H]21 (single isomer, unassigned) [Compound 2, cis-(-)2,3,3a,4,5,9b-hexahydro-9-carboxamido-3-(n-propyl)-1H-benz[e]indole] | – | 0.019 | 84 | 6 | – | – |
| 5.2 | 1.0 | 58 | .013 ml/min/5 million cells | 59 | 70 | – | CCCN1CC[C@H]2c3c(cccc3C(N)=O)CC[C@H]21 (racemic) [Compound 1, cis-(±)2,3,3a,4,5,9b-hexahydro-9-carboxamido-3-(n-propyl)-1H-benz[e]indole] | – | 0.037 | 82 | 2 | 7.3 | 0.97 |
| 533 | – | – | – | – | – | – | CCCN1CCC2c3c(cccc3C(N)=O)CCC21 (single isomer, unassigned) [Compound 3, cis-(+)2,3,3a,4,5,9b-hexahydro-9-carboxamido-3-(n-propyl)-1H-benz[e]indole] | – | > 1 | – | > 300 | – | – |

Second part, the molecule before the results:

| SMILES | IC50 [5] [nM] | relative metabolic stability (rel. stab.) [7] | clearance [8] [mL/min/kg] | In vitro hepatocyte assay clearance [7] | bioavailability ([9]; Study 1, oral 6 mg/kg vs i.v. 2 mg/kg) [%] | bioavailability ([9]; Study 2, samples taken for 24 hours after administration, oral 6 mg/kg vs i.v. 2 mg/kg) [%] | bioavailability ([9]; study not given, oral 6 mg/kg vs i.v. 2 mg/kg) [%] | plasma oral bioavailability [1] [%] | ED50 [2] [mg/kg] | Percent of control arterial blood pressure [3] [%] | ED50 [4] [µg/kg] | ED50 ([6]; oral (p.o.) administration) [mg/kg] | ED50 [6, 10] [mg/kg] |
| --- | --- | --- | --- | --- | --- | --- | --- | --- | --- | --- | --- | --- | --- |
| CCCN(CCC)C1CCc2cccc(O)c2C1 (centres unmarked) [8-OH DPAT] | – | – | – | – | – | – | – | < 5 | – | – | – | – | – |
| CCCN1CCCC2c3c(cccc3C(N)=O)CCC21 (racemic) [Compound 4, trans-(±)1,2,3,4,4a,5,6,10b-octahydro-10-carboxamido-4-(n-propyl)-benzo[f]quinoline] | 3.7 | – | – | – | – | – | – | – | – | – | – | 4.1 | 0.23 |
| CCCN1CCC[C@H]2c3c(cccc3C(N)=O)CC[C@@H]21 (single isomer, unassigned) [Compound 6, trans-(+)1,2,3,4,4a,5,6,10b-octahydro-10-carboxamido-4-(n-propyl)-benzo[f]quinoline] | – | 1.05 | – | – | – | – | – | – | – | – | – | – | – |
| CCCN1CCCC2c3c(cccc3C(N)=O)CCC21 (single isomer, unassigned) [Compound 5, trans-(-)1,2,3,4,4a,5,6,10b-octahydro-10-carboxamido-4-(n-propyl)-benzo[f]quinoline] | 1.5 | 3.59 | 43 | .012 ml/min/5 million cells | – | – | 86 | – | 0.15 | 85 | > 100 | – | 1.73 |
